US4806540A, “1-heteroaryl-4-aryl-pyrazole microbicides” (Bayer Aktiengesellschaft, priority 1985, dated 1989)
Values after ≈ are worked out from the molar mass of the structure shown.

Experiments:
[1] = test system: fungi: Alternaria tenuis, Aspergillus niger, Aureobasidium pullulans, Chaetomium globosum, Cladosporium cladoporioides, Lentinus tigrinus, Penicillium glaucum …; assay: Minimum inhibitory concentrations (MIC), activity against fungi (agar); type: cell-based; settings: agar from beer wort and peptone; 28° C., 60 to 70% humidity, 2 weeks; 0.1 mg/l to 5,000 mg/l
Experimental: Active compounds according to the invention are added in concentrations of 0.1 mg/l to 5,000 mg/l to an agar prepared from beer wort and peptone. After storage at 28° C. and 60 to 70% relative atmospheric humidity for 2 weeks, the MIC is determined. […] Good actions of the listed test organisms are shown, for example, by the compounds according to Preparation Examples 2, 6a, 12a, 9b, 24 and 25: […]

Escherichia coli = assay: Action against bacteria, MIC (agar); type: cell-based; settings: 336 h, agar containing broth, 28° C., 2 weeks
Experimental: (§1) The nutrient medium is then infected with in each case the test organisms listed in Table C and the infected medium is kept at 28° C. and 60 to 70% relative atmospheric humidity for 2 weeks. […] The compounds according to Preparation Examples 2, 6a, 12a, 9b, 13 and 14 show good actions.

Staphylococcus aureus = assay: Action against bacteria, MIC (agar); type: cell-based; settings: 336 h, agar containing broth, 28° C., 2 weeks
Experimental: as §1

Pyricularia oryzae = type: in vivo, Pyricularia oryzae (on young rice plants); settings: protective, rice plants; evaluation 4 days after inoculation
bacteria = assay: Action against bacteria (test organisms of Table C), result in words; type: cell-based, Escherichia coli, Staphylococcus aureus; settings: 1 to 5,000 ppm; agar containing broth, 28° C., 2 weeks
Experimental: as §1

Row | Molecule | action against the listed test organisms (fungi) [1] | MIC (Escherichia coli) | MIC (Staphylococcus aureus) | activity compared with the prior art (Pyricularia oryzae) | action against bacteria (bacteria)
1 | O=c1c(-c2ccccc2)cn(S(=O)(=O)c2ccccc2)n1-c1ccccn1 [Example 25] | Good actions | 1000 µg/mL (≈ 2650 µM) | 20 µg/mL (≈ 53 µM) | – | –
2 | CC(=O)n1cc(-c2ccccc2)c(=O)n1-c1ncccn1 [Example 2, 1-Pyrimid-2-yl-2-acetyl-4-phenyl-pyrazol-5-one] | Good actions | 750 µg/mL (≈ 2680 µM) | 1000 µg/mL (≈ 3570 µM) | clearly superior activity compared with the prior art | good actions
3 | mixture of 1-pyrid-2-yl-2-acetyl-4-phenyl-pyrazolin-5-one and 1-pyrid-2-yl-4-phenyl-5-acetoxypyrazole [Example 1] | – | – | – | clearly superior activity compared with the prior art | –
4 | CS(=O)(=O)n1cc(-c2ccccc2)c(=O)n1-c1ccccn1 [Example 24, 1-pyrid-2-yl-2-methylsulphonyl-4-phenyl-pyrazolin-5-one] | – | 50 µg/mL (≈ 159 µM) | 50 µg/mL (≈ 159 µM) | – | –
